Reference: patent publication US20260034135A1, “USE OF N6-BENZYLAMINOPURINE AS AN APPETITE SUPPRESSANT” (THE GOVERNING COUNCIL OF THE UNIVERSITY OF TORONTO, priority 2022, published 2026)

Tests used:
[1] = system: insulin receptor subunit beta (InsRb); test: Insulin receptor subunit beta protein level by Western blot in mHypoE-46; format: cell-based, mouse
Description: mHypoE-46 cells were serum starved in 5.5 mM glucose (LG) DMEM for 1 hour prior to treatment with vehicle (0.1% DMSO), 100 µM BAP or H20, […] 5-Aminoimidazole-4-carboxamide ribonucleotide (AICAR) or 0 mM glucose DMEM. Protein was harvested using 1× cell lysis buffer (Cell Signaling Technologies, Inc, CST) containing protease and phosphatase inhibitors. A total of 30 μg protein was separated on a 12% SDS-polyacrylamide gels and transferred onto PVDF membranes. Membranes were blocked in 5% milk dissolved in Tris-buffered saline with Tween 20 (TBS-T) for 1 h and incubated with primary antibody overnight at 4° C. phospho-AMPKα (Thr172; cat. 2532S, CST), and total AMPKα (cat. 2535S, CST); phospho-p70-S6K (Thr389; cat. 9205S, CST) and total p70-S6K (cat. 9202S, CST); insulin receptor ß (cat. 3025S, CST); phospho-AKT (Ser473; cat. 9271S, CST) and total AKT (cat. 9272S, CST); phospho-ERK1/2 (Thr202/Tyr204; cat. 9101, CST) and total ERK (cat. 4695, CST) were diluted 1:1000 in 5% milk in TBS-T. Membranes were washed and incubated with secondary HRP-linked antirabbit antibody (1:7500 in 5% milk in TBS-T, CST) for 1 h, washed, and imaged using the Signal Fire ECL Reagent (CST) on the iBright 1500 Imaging System (Thermofisher). Protein density was quantified using ImageJ or the iBright Imaging System.
The mHypoE-46 neurons were exposed to […] BAP for 16 h followed by RNA isolation. […]

[2] = Peripheral fat mass by Bruker scan; format: in vivo, CD-1 mice; conditions: male CD-1, HFD, BAP emulsion 11 days, Bruker scan before and after
Excerpt: Male and female CD-1 mice were received at age 6-7 weeks and were acclimated on a chow diet for one week prior to experimentation. After acclimation to the facility, mice were switched to a 60% HFD. The male and female mice received HFD for 4 (male) and 5 or 16 (female) weeks prior to BAP exposure. The mice were then acclimated to the emulsion feeding protocol for 4 days prior to the start of BAP exposure using the method described in Kuster et al. (12). Two days prior to the start of the exposure period, a cohort of male mice underwent acute general anesthetic with isoflurane for baseline Bruker scanning to quantify peripheral fat mass. The mice were then weight-matched and randomly assigned to either the control or BAP group. During the exposure period, mice were restrained via scruffing (held at back of neck) and fed 200 μL of an emulsion containing 0.5% carboxymethyl cellulose and 50% honey with or without BAP at 2 hr prior to lights off at the facility daily.
The BAP concentrations were calibrated weekly to achieve a dosage of 300 mg/kg/day. All mice were kept on the 60% HFD throughout the exposure period. […] Hypothalamic collected from the mice were then used to isolate RNA and quantify gene expression using quantitative reverse transcription polymerase chain reaction (qRT-PCR).

Akt (PKB) = test: Akt (Ser473) phosphorylation by Western blot in mHypoE-46 after insulin re-exposure; format: cell-based, mouse
Description: mHypoE-46 cells were serum starved in 5.5 mM glucose (LG) DMEM for 1 hour prior to treatment with vehicle (0.1% DMSO), 100 µM BAP or H20, […] 5-Aminoimidazole-4-carboxamide ribonucleotide (AICAR) or 0 mM glucose DMEM. Protein was harvested using 1× cell lysis buffer (Cell Signaling Technologies, Inc, CST) containing protease and phosphatase inhibitors. A total of 30 μg protein was separated on a 12% SDS-polyacrylamide gels and transferred onto PVDF membranes. […] Protein density was quantified using ImageJ or the iBright Imaging System.
In order to determine if insulin signaling and sensitivity may be affected by BAP, we assessed the activity and expression of the key signal transduction cascade activated by insulin, the PI3K/Akt pathway. mHypoE-46 neurons were co-treated with 100 μM insulin or vehicle control and 100 μM BAP and vehicle control for 24 hours. […] The phosphorylation level of Akt (PKB), the downstream kinase in the PI3K/Akt signal transduction pathway was assessed. […]

SMILES: c1ccc(CNc2ncnc3nc[nH]c23)cc1 [BAP, N6-benzylaminopurine]
- InsR protein level in response to cellular insulin resistance, BAP relative to vehicle control ([1]; 100 μM BAP 24 h, insulin pre-treatment (100 μM, 24 h)): no change
- basal levels of InsRb protein ([1]; 100 μM BAP, 24 hours): significantly increased
- net peripheral fat [2]: do not observe any significant changes
- peripheral fat mass percentage [2]: do not observe any significant changes
- Akt phosphorylation at Ser473 upon 15 minutes of insulin exposure (Akt (PKB); 100 μM BAP 24 hours, neurons pre-treated with vehicle alone, re-exposed to 100 nM insulin): significantly increased
- induction of Akt phosphorylation by BAP under insulin-induced cellular insulin resistance (Akt (PKB); 100 μM BAP, neurons pre-treated with 100 μM insulin for 24 hours): not observed
